Holding throughout (type): functional, cell-based
One experiment deals with COLO 205. Briefly: Cytotoxicity against human COLO205 cells assessed as growth inhibition after 48 hrs by SRB assay. The settings on record: COLO 205, 48 h.
The next experiment concerns HCT-15. Description: Cytotoxicity against human HCT15 cells assessed as growth inhibition after 48 hrs by SRB assay. The settings on record: HCT-15, 48 h. Background: The SRB assay estimates cell density from bound dye.
The test system of the next experiment is SW-620. Briefly: Cytotoxicity against human SW620 cells assessed as growth inhibition after 48 hrs by SRB assay. The settings on record: SW-620, 48 h.
The test system of another experiment is SK-N-SH. Description: Cytotoxicity against human SK-N-SH cells assessed as growth inhibition after 48 hrs by SRB assay.
A further experiment relates to DU-145. Description: Cytotoxicity against human DU145 cells assessed as growth inhibition after 48 hrs by SRB assay. The settings on record: DU-145, 48 h.
A further experiment deals with HeLa. Description: Cytotoxicity against human HeLa cells assessed as growth inhibition after 48 hrs by SRB assay.

As usually defined, the IC50 is the concentration that gives 50% inhibition.

Molecules are shown by their SMILES.

`COc1cc([C@@H]2c3cc4c(cc3[C@@H](n3cc(COc5ccc(C(=O)/C=C/c6cccc(C)c6)cc5)nn3)[C@H]3COC(=O)[C@H]23)OCO4)cc(OC)c1O`: the IC50 with COLO 205 came to 15.4 µM; with HCT-15, 12.2 µM; in the experiment on SW-620 it was 11.5 µM; in the experiment on SK-N-SH, 13.5 µM; in the experiment on DU-145 it was 20.5 µM; with HeLa, 9.32 µM.
`COc1cc([C@@H]2c3cc4c(cc3[C@@H](n3cc(COc5ccc(C(=O)/C=C/c6ccccc6F)cc5)nn3)[C@H]3COC(=O)[C@H]23)OCO4)cc(OC)c1OC`: the IC50 came to 12.9 µM with HCT-15; 8.12 µM in the experiment on SW-620; 6.73 µM with SK-N-SH; 20.2 µM in the experiment with DU-145; 17.2 µM in the experiment on HeLa.
Turning to `COc1cc([C@@H]2c3cc4c(cc3[C@@H](n3cc(COc5ccc(/C=C/C(=O)c6ccccc6)cc5)nn3)[C@H]3COC(=O)[C@H]23)OCO4)cc(OC)c1OC`, the IC50 with COLO 205 came out at 29.3 µM; in the experiment with HCT-15, 15.3 µM; in the experiment on SW-620, 9.2 µM; with SK-N-SH it was 25.6 µM; in the experiment on DU-145 it was 30 µM; in the experiment on HeLa, 19.1 µM.
Turning to `COc1cc([C@@H]2c3cc4c(cc3[C@@H](n3cc(COc5ccc(C(=O)/C=C/c6ccccc6F)cc5)nn3)[C@H]3COC(=O)[C@H]23)OCO4)cc(OC)c1O`, the IC50 with COLO 205 worked out at 12.3 µM; in the experiment with HCT-15, 15.2 µM; in the experiment with SW-620 it was 12.6 µM; in the experiment with SK-N-SH, 7.4 µM; in the experiment with DU-145 it was 9.34 µM.
In the case of `COc1cc([C@@H]2c3cc4c(cc3[C@@H](n3cc(COc5ccc(C(C)=O)cc5)nn3)[C@H]3COC(=O)[C@H]23)OCO4)cc(OC)c1O`, the IC50 was determined as 14.8 µM with COLO 205; 12 µM in the experiment on HCT-15; 11.6 µM with SW-620; 11.6 µM in the experiment with SK-N-SH; 16.6 µM in the experiment on DU-145; 18.9 µM in the experiment on HeLa.
Consider `COc1cc([C@@H]2c3cc4c(cc3[C@@H](n3cc(COc5ccc(C(=O)/C=C/c6ccc(F)cc6)cc5)nn3)[C@H]3COC(=O)[C@H]23)OCO4)cc(OC)c1OC`, for which the IC50 in the experiment with COLO 205 was 13.2 µM; in the experiment with HCT-15, 12 µM; with SW-620, 2.4 µM; with SK-N-SH, 3.4 µM; in the experiment on DU-145, 6.5 µM.
Regarding `COc1cc([C@@H]2c3cc4c(cc3[C@@H](n3cc(COc5ccc(/C=C/C(C)=O)cc5)nn3)[C@H]3COC(=O)[C@H]23)OCO4)cc(OC)c1O`, the IC50 was found to be 6.82 µM with HCT-15; 7.5 µM with SW-620; 10.3 µM with SK-N-SH; 12 µM in the experiment on DU-145; 13.1 µM in the experiment on HeLa.
For `COc1cc(/C=C/C(C)=O)ccc1OCc1cn([C@@H]2c3cc4c(cc3[C@@H](c3cc(OC)c(O)c(OC)c3)[C@H]3C(=O)OC[C@@H]32)OCO4)nn1`, the IC50 worked out at 18.2 µM in the experiment on COLO 205; 12.4 µM in the experiment with HCT-15; 5.66 µM in the experiment with SW-620; 5.45 µM in the experiment with SK-N-SH; 6.5 µM in the experiment on DU-145; 5 µM in the experiment on HeLa.
As for `COc1cc([C@@H]2c3cc4c(cc3[C@@H](O[C@@H]3O[C@@H]5CO[C@@H](C)O[C@H]5[C@H](O)[C@H]3O)[C@H]3COC(=O)[C@H]23)OCO4)cc(OC)c1O` [ETOPOSIDE], the IC50 in the experiment on COLO 205 amounted to 14.2 µM; in the experiment on HCT-15, 12.2 µM; in the experiment on SW-620, 13.2 µM; with SK-N-SH, 9.03 µM; with DU-145 it was 16.4 µM; in the experiment on HeLa, 10.4 µM.
Regarding `COc1ccc(/C=C/C(=O)c2ccc(OCc3cn([C@@H]4c5cc6c(cc5[C@@H](c5cc(OC)c(O)c(OC)c5)[C@H]5C(=O)OC[C@@H]54)OCO6)nn3)cc2)cc1`, the IC50 in the experiment with HCT-15 came out at 7.45 µM; in the experiment with SW-620 it was 10.3 µM; with SK-N-SH, 15.6 µM; in the experiment with DU-145, 12.5 µM; with HeLa, 6.8 µM.
For `COc1cc([C@@H]2c3cc4c(cc3[C@@H](n3cc(COc5ccc(/C=C/C(=O)c6ccccc6)cc5)nn3)[C@H]3COC(=O)[C@H]23)OCO4)cc(OC)c1O`, the IC50 in the experiment with HCT-15 amounted to 6.75 µM; in the experiment with SW-620, 4.4 µM; in the experiment on SK-N-SH, 8.3 µM; in the experiment with DU-145, 5.45 µM; with HeLa, 9.18 µM.
Take `COc1cc([C@@H]2c3cc4c(cc3[C@@H](n3cc(COc5ccc(C(C)=O)cc5)nn3)[C@H]3COC(=O)[C@H]23)OCO4)cc(OC)c1OC`: the half-maximal inhibitory concentration (IC50) with COLO 205 was determined as 18.8 µM; with HCT-15, 13.5 µM; in the experiment with SW-620, 14.6 µM; in the experiment with SK-N-SH, 15.6 µM; in the experiment on DU-145 it was 13.6 µM; with HeLa, 18.5 µM.
As to `COc1cc([C@@H]2c3cc4c(cc3[C@@H](n3cc(COc5ccc(C(=O)/C=C/c6ccc(F)cc6)cc5)nn3)[C@H]3COC(=O)[C@H]23)OCO4)cc(OC)c1O`, the IC50 in the experiment on COLO 205 came out at 12.5 µM; with HCT-15, 12.4 µM; in the experiment with SW-620, 0.35 µM; in the experiment with SK-N-SH, 0.39 µM; in the experiment on DU-145, 12 µM; with HeLa, 4.5 µM.
Turning to `COc1cc([C@@H]2c3cc4c(cc3[C@@H](n3cc(COc5ccc(C(=O)/C=C/c6ccccc6)cc5)nn3)[C@H]3COC(=O)[C@H]23)OCO4)cc(OC)c1OC`, the IC50 amounted to 9.12 µM with COLO 205; 12.8 µM in the experiment with HCT-15; 2.02 µM with SW-620; 4.13 µM in the experiment on SK-N-SH; 30.2 µM with DU-145; 5.34 µM with HeLa.
For the compound `COc1cc(/C=C/C(C)=O)ccc1OCc1cn([C@@H]2c3cc4c(cc3[C@@H](c3cc(OC)c(OC)c(OC)c3)[C@H]3C(=O)OC[C@@H]32)OCO4)nn1`, the 50% inhibitory concentration (IC50) was 8.98 µM in the experiment on COLO 205; 10.4 µM in the experiment on HCT-15; 3.41 µM in the experiment on SW-620; 10 µM in the experiment with SK-N-SH; 3.4 µM with HeLa.
`COc1cc([C@@H]2c3cc4c(cc3[C@@H](n3cc(COc5ccc(C(=O)/C=C/c6cccc(F)c6)cc5)nn3)[C@H]3COC(=O)[C@H]23)OCO4)cc(OC)c1OC`: the half-maximal inhibitory concentration (IC50) with COLO 205 came to 7.32 µM; in the experiment with HCT-15, 15.6 µM; in the experiment with SW-620 it was 5.21 µM; with SK-N-SH, 12.4 µM; with DU-145, 13.3 µM; in the experiment on HeLa, 14.2 µM.
Turning to `COc1ccc(/C=C/C(=O)c2ccc(OCc3cn([C@@H]4c5cc6c(cc5[C@@H](c5cc(OC)c(OC)c(OC)c5)[C@H]5C(=O)OC[C@@H]54)OCO6)nn3)cc2)cc1`, the IC50 in the experiment on COLO 205 was 12.3 µM; in the experiment on HCT-15, 6.12 µM; in the experiment on SW-620, 11.2 µM; in the experiment with SK-N-SH, 7.32 µM; in the experiment on DU-145, 10.2 µM.
Turning to `COc1cc([C@@H]2c3cc4c(cc3[C@@H](n3cc(COc5ccc(C(=O)/C=C/c6cccc(F)c6)cc5)nn3)[C@H]3COC(=O)[C@H]23)OCO4)cc(OC)c1O`, the IC50 in the experiment on COLO 205 came to 5.15 µM; with SW-620, 5.36 µM; in the experiment on SK-N-SH it was 4.5 µM; with DU-145, 7.4 µM; in the experiment on HeLa, 6.4 µM.
Regarding `COc1cc([C@@H]2c3cc4c(cc3[C@@H](n3cc(COc5ccc(C(=O)/C=C/c6cccc(C)c6)cc5)nn3)[C@H]3COC(=O)[C@H]23)OCO4)cc(OC)c1OC`, the IC50 in the experiment with COLO 205 amounted to 8.23 µM; with SW-620, 6.53 µM; in the experiment with SK-N-SH it was 7.13 µM; in the experiment on DU-145 it was 9.36 µM; in the experiment on HeLa it was 12.2 µM.
On to `COc1cc([C@@H]2c3cc4c(cc3[C@@H](n3cc(COc5ccc(/C=C/C(C)=O)cc5)nn3)[C@H]3COC(=O)[C@H]23)OCO4)cc(OC)c1OC`, for which the IC50 was 7.6 µM in the experiment on COLO 205; 16.3 µM with HCT-15; 10.2 µM in the experiment on SW-620; 14.4 µM with SK-N-SH; 11.3 µM with DU-145.
For the compound `COc1cc([C@@H]2c3cc4c(cc3[C@@H](n3cc(COc5ccc(C(=O)/C=C/c6ccccc6)cc5)nn3)[C@H]3COC(=O)[C@H]23)OCO4)cc(OC)c1O`, the IC50 in the experiment on COLO 205 amounted to 12.3 µM; with HCT-15, 9.5 µM; in the experiment on SW-620, 0.64 µM; in the experiment with SK-N-SH it was 0.66 µM; in the experiment with DU-145 it was 12 µM; in the experiment with HeLa, 5.9 µM.

Source of the values: ChEMBL document CHEMBL3621136, “Design, synthesis, and biological and docking studies of novel epipodophyllotoxinchalcone hybrids as potential anticancer agents” (Medchemcomm, 2015).
